Assay results: ChEMBL document CHEMBL4765323, “Design, synthesis, and biological evaluation of novel miconazole analogues containing selenium as potent antifungal agents” (Eur J Med Chem, 2020)
In brackets after ≈: the same amount, converted by molar mass. Activity calls are given as the source filed them. No cut-off for these calls is given here.

Columns and labels:
Candida albicans [1] = assay: Fungicidal activity against Candida albicans CPCC400616 at 8 times MIC measured after 4 hrs by time-kill curve assay; type: functional, organism-based
Candida albicans [2] = assay: Antifungal activity against fluconazole-resistant Candida albicans strain 904 measured after 24 hrs by micro-broth dilution assay; type: functional
Pichia kudriavzevii = assay: Antifungal activity against Candida krusei AS 2.1045 measured after 24 hrs by micro-broth dilution assay; type: functional
Candida albicans [3] = assay: Inhibition of CYP51 in azole-resistant Candida albicans ATCC […] assessed as Lanosterol level at 0.03125 ug/ml incubated for 16 hrs by LC-MS analysis relative to control; set-up: scale not given: the % may be the effect or the level left; settings: dose 0.03125 µg/ml
Candida albicans [4] = assay: Antibiofilm activity against FCZ-Resistant Candida albicans CPCC400616 assessed as sessile minimum inhibitory concentration of biofilm formation at 80% after 24 hrs by XTT assay; type: functional
Candida albicans [5] = assay: Inhibition of CYP51 in azole-resistant Candida albicans ATCC […] assessed as Lanosterol level at 2 ug/ml incubated for 16 hrs by LC-MS analysis relative to control; set-up: scale not given: the % may be the effect or the level left; settings: dose 2.0 µg/ml
Aspergillus fumigatus = assay: Antifungal activity against Aspergillus fumigatus CGMCC 3.7795 measured after 72 hrs by micro-broth dilution assay; type: functional
Candida albicans [6] = assay: Antibiofilm activity against FCZ-Resistant Candida albicans CPCC400616 assessed as sessile minimum inhibitory concentration of biofilm formation at 80% after 3 hrs by XTT assay; type: functional
[7] = Ratio of MFC for fungicidal activity against Candida albicans CPCC400616 to MIC for Antifungal activity against Candida albicans CPCC400616; type: functional; settings: time 24 hrs
Candida albicans [8] = assay: Antibiofilm activity against FCZ-Resistant Candida albicans CPCC400616 assessed as sessile minimum inhibitory concentration of biofilm formation at 50% after 6 hrs by XTT assay; type: functional
Candida albicans [9] = assay: Antibiofilm activity against FCZ-Resistant Candida albicans CPCC400616 assessed as sessile minimum inhibitory concentration of biofilm formation at 50% after 3 hrs by XTT assay; type: functional
Candida albicans [10] = assay: Inhibition of CYP51 in azole-resistant Candida albicans ATCC […] assessed as Eburicol level at 0.03125 ug/ml incubated for 16 hrs by LC-MS analysis relative to control; set-up: scale not given: the % may be the effect or the level left; settings: dose 0.03125 µg/ml
Candida albicans [11] = assay: Antibiofilm activity against FCZ-Resistant Candida albicans CPCC400616 assessed as sessile minimum inhibitory concentration of biofilm formation at 50% after 24 hrs by XTT assay; type: functional
Candida albicans [12] = assay: Antifungal activity against Candida albicans 901 measured after 24 hrs by micro-broth dilution assay; type: functional
Candida albicans [13] = assay: Antifungal activity against fluconazole-resistant Candida albicans 632 measured after 24 hrs by micro-broth dilution assay; type: functional
Candida albicans [14] = assay: Antifungal activity against fluconazole-resistant Candida albicans 17 measured after 24 hrs by micro-broth dilution assay; type: functional
[Candida] zeylanoides = Antifungal activity against Candida zeylanoides CMGCC2.3739 measured after 24 hrs by micro-broth dilution assay; type: functional; settings: Dujonia zeylanoides
Candida albicans [15] = assay: Antifungal activity against Candida albicans ATCC SC5314 measured after 24 hrs by micro-broth dilution assay; type: functional
Candida albicans [16] = assay: Inhibition of CYP51 in azole-resistant Candida albicans ATCC […] assessed as Eburicol level at 2 ug/ml incubated for 16 hrs by LC-MS analysis relative to control; set-up: scale not given: the % may be the effect or the level left; settings: dose 2.0 µg/ml
Candida albicans [17] = assay: Antibiofilm activity against FCZ-Resistant Candida albicans CPCC400616 assessed as sessile minimum inhibitory concentration of biofilm formation at 80% after 1.5 hrs by XTT assay; type: functional
Candida albicans [18] = assay: Fungicidal activity against Candida albicans CPCC400616 measured after 48 hrs; type: functional
Candida albicans [19] = assay: Inhibition of CYP51 in azole-resistant Candida albicans ATCC […] assessed as Obtusifoliol level at 8 ug/ml incubated for 16 hrs by LC-MS analysis relative to control; set-up: scale not given: the % may be the effect or the level left; settings: dose 8.0 µg/ml
Candida albicans [20] = assay: Inhibition of CYP51 in azole-resistant Candida albicans ATCC […] assessed as Eburicol level at 0.125 ug/ml incubated for 16 hrs by LC-MS analysis relative to control; set-up: scale not given: the % may be the effect or the level left; settings: dose 0.125 µg/ml
Candida albicans [21] = assay: Antibiofilm activity against FCZ-Resistant Candida albicans CPCC400616 assessed as sessile minimum inhibitory concentration of biofilm formation at 50% after 1.5 hrs by XTT assay; type: functional
Candida albicans [22] = assay: Antibiofilm activity against FCZ-Resistant Candida albicans CPCC400616 assessed as sessile minimum inhibitory concentration of biofilm formation at 80% after 6 hrs by XTT assay; type: functional
Candida albicans [23] = assay: Fungicidal activity against Candida albicans CPCC400616 at MIC to 8 times MIC measured after 24 hrs by time-kill curve assay; type: functional
Candida albicans [24] = assay: Antifungal activity against Candida albicans CPCC400616 measured after 24 hrs by micro-broth dilution assay; type: functional
Candida albicans [25] = assay: Antifungal activity against fluconazole-resistant Candida albicans CaR measured after 24 hrs by micro-broth dilution assay; type: functional
Candida albicans [26] = assay: Inhibition of CYP51 in azole-resistant Candida albicans ATCC […] assessed as Eburicol level at 0.5 ug/ml incubated for 16 hrs by LC-MS analysis relative to control; set-up: scale not given: the % may be the effect or the level left; settings: dose 0.5 µg/ml
Nakaseomyces glabratus = assay: Antifungal activity against clinical isolate Candida glabrata measured after 24 hrs by micro-broth dilution assay; type: functional
Candida albicans [27] = assay: Inhibition of CYP51 in azole-resistant Candida albicans ATCC […] assessed as inhibition of ergosterol biosynthesis by measuring ergosterol content at 8 ug/ml incubated for 16 hrs by LC-MS analysis relative to control; set-up: scale not given: the % may be the effect or the level left; settings: dose 8.0 µg/ml
[28] = Ratio of hemolysis activity in rabbit RBC to MIC for Candida albicans; type: toxicity; settings: rabbit red blood cells (RBC)
Candida albicans [29] = assay: Inhibition of CYP51 in azole-resistant Candida albicans ATCC […] assessed as Lanosterol level at 0.125 ug/ml incubated for 16 hrs by LC-MS analysis relative to control; set-up: scale not given: the % may be the effect or the level left; settings: dose 0.125 µg/ml
Candida albicans [30] = assay: Inhibition of CYP51 in azole-resistant Candida albicans ATCC […] assessed as Obtusifoliol level at 0.03125 ug/ml incubated for 16 hrs by LC-MS analysis relative to control; set-up: scale not given: the % may be the effect or the level left; settings: dose 0.03125 µg/ml
Candida albicans [31] = assay: Inhibition of CYP51 in azole-resistant Candida albicans ATCC […] assessed as Lanosterol level at 0.5 ug/ml incubated for 16 hrs by LC-MS analysis relative to control; set-up: scale not given: the % may be the effect or the level left; settings: dose 0.5 µg/ml
Candida albicans [32] = assay: Inhibition of CYP51 in azole-resistant Candida albicans ATCC […] assessed as ergosterol level at 0.125 ug/ml incubated for 16 hrs by LC-MS analysis relative to control; set-up: scale not given: the % may be the effect or the level left; settings: dose 0.125 µg/ml
Candida albicans [33] = assay: Inhibition of CYP51 in azole-resistant Candida albicans ATCC […] assessed as Obtusifoliol level at 0.5 ug/ml incubated for 16 hrs by LC-MS analysis relative to control; set-up: scale not given: the % may be the effect or the level left; settings: dose 0.5 µg/ml
Candida parapsilosis = assay: Antifungal activity against Candida parapsilosis ATCC 22019 measured after 24 hrs by micro-broth dilution assay; type: functional; settings: Lodderomyces parapsilosis
Erythrocyte = assay: Hemolytic activity in rabbit RBC assessed as hemolysis ratio at 1 ug/ml measured after 3 hrs relative to control; type: ADME, cell-based, Oryctolagus cuniculus; settings: dose 1 µg/ml
Candida albicans [34] = assay: Inhibition of CYP51 in azole-resistant Candida albicans ATCC […] assessed as ergosterol level at 0.03125 ug/ml incubated for 16 hrs by LC-MS analysis relative to control; set-up: scale not given: the % may be the effect or the level left; settings: dose 0.03125 µg/ml
Candida albicans [35] = assay: Inhibition of CYP51 in azole-resistant Candida albicans ATCC […] assessed as Obtusifoliol level at 0.125 ug/ml incubated for 16 hrs by LC-MS analysis relative to control; set-up: scale not given: the % may be the effect or the level left; settings: dose 0.125 µg/ml
Candida albicans [36] = assay: Inhibition of CYP51 in azole-resistant Candida albicans ATCC […] assessed as ergosterol level at 2 ug/ml incubated for 16 hrs by LC-MS analysis relative to control; set-up: scale not given: the % may be the effect or the level left; settings: dose 2.0 µg/ml
Candida albicans [37] = assay: Inhibition of CYP51 in azole-resistant Candida albicans ATCC […] assessed as ergosterol level at 0.5 ug/ml incubated for 16 hrs by LC-MS analysis relative to control; set-up: scale not given: the % may be the effect or the level left; settings: dose 0.5 µg/ml
Candida albicans [38] = assay: Inhibition of CYP51 in azole-resistant Candida albicans ATCC […] assessed as Lanosterol level at 8 ug/ml incubated for 16 hrs by LC-MS analysis relative to control; set-up: scale not given: the % may be the effect or the level left; settings: dose 8.0 µg/ml
Candida albicans [39] = assay: Inhibition of CYP51 in azole-resistant Candida albicans ATCC […] assessed as Obtusifoliol level at 2 ug/ml incubated for 16 hrs by LC-MS analysis relative to control; set-up: scale not given: the % may be the effect or the level left; settings: dose 2.0 µg/ml
Candida albicans [40] = assay: Inhibition of CYP51 in azole-resistant Candida albicans ATCC […] assessed as Eburicol level at 8 ug/ml incubated for 16 hrs by LC-MS analysis relative to control; set-up: scale not given: the % may be the effect or the level left; settings: dose 8.0 µg/ml
Cryptococcus neoformans = assay: Antifungal activity against Cryptococcus neoformans CGMCC2.3161 measured after 72 hrs by micro-broth dilution assay; type: functional

Structure (SMILES): Clc1ccc(C(Cn2ccnc2)[Se]Cc2ccccc2Cl)c(Cl)c1 (configuration not stated)
- Activity (Candida albicans [1]): Active
- MIC (Candida albicans [2]): 0.25 µg/mL (≈ 0.562 µM)
- MIC (Pichia kudriavzevii): 0.13 µg/mL (≈ 0.292 µM)
- Activity (Candida albicans [3]): 0%
- Activity (Candida albicans [4]): >128 µg/mL
- Activity (Candida albicans [5]): 13.6%
- MIC (Aspergillus fumigatus): 2 µg/mL (≈ 4.5 µM)
- Activity (Candida albicans [6]): 64 µg/mL
- MFC/MIC ratio [7]: 8
- Activity (Candida albicans [8]): 128 µg/mL
- Activity (Candida albicans [9]): 16 µg/mL
- Activity (Candida albicans [10]): 7.4%
- Activity (Candida albicans [11]): >128 µg/mL
- MIC (Candida albicans [12]): 0.5 µg/mL (≈ 1.12 µM)
- MIC (Candida albicans [13]): 1 µg/mL (≈ 2.25 µM)
- MIC (Candida albicans [14]): 0.13 µg/mL (≈ 0.292 µM)
- MIC ([Candida] zeylanoides): 1 µg/mL (≈ 2.25 µM)
- MIC (Candida albicans [15]): 0.01 µg/mL (≈ 0.0225 µM)
- Activity (Candida albicans [16]): 75.1%
- Activity (Candida albicans [17]): 8 µg/mL
- MIC (Candida albicans [18]): 0.125 µg/mL (≈ 0.281 µM)
- Activity (Candida albicans [19]): 8.1%
- Activity (Candida albicans [20]): 5.3%
- Activity (Candida albicans [21]): 4 µg/mL
- Activity (Candida albicans [22]): >128 µg/mL
- Activity (Candida albicans [23]): >3 log10CFU/ml
- MIC (Candida albicans [24]): 0.02 µg/mL (≈ 0.045 µM)
- MIC (Candida albicans [25]): 0.06 µg/mL (≈ 0.135 µM)
- Activity (Candida albicans [26]): 70.3%
- MIC (Nakaseomyces glabratus): 0.5 µg/mL (≈ 1.12 µM)
- Activity (Candida albicans [27]): 77.7%
- selectivity ratio [28]: 256
- Activity (Candida albicans [29]): 11.6%
- Activity (Candida albicans [30]): 1%
- Activity (Candida albicans [31]): 10%
- Activity (Candida albicans [32]): 80.3%
- Activity (Candida albicans [33]): 17.4%
- MIC (Candida parapsilosis): 0.13 µg/mL (≈ 0.292 µM)
- Activity (Erythrocyte): 0 µg/mL
- Activity (Candida albicans [34]): 86.4%
- Activity (Candida albicans [35]): 9.5%
- Activity (Candida albicans [36]): 19.8%
- Activity (Candida albicans [37]): 78.9%
- Activity (Candida albicans [38]): 12.4%
- Activity (Candida albicans [39]): 7.8%
- Activity (Candida albicans [40]): 64.6%
- MIC (Cryptococcus neoformans): 0.25 µg/mL (≈ 0.562 µM)
